Results from US11242334B2, “Heterocyclic compounds as kinase inhibitors, compositions comprising the heterocyclic compound, and methods of use thereof” (JS INNOPHARM (SHANGHAI) LTD, priority 2017, dated 2022).

Key:
human ERK2 = target: T1, human ERK2 (Homo sapiens, UniProt P28482); experiment: LanthaScreen TR-FRET enzymatic assay, ERK2; settings: IC50 values of ERK2 biochemical activity; 5 μM ATP, 400 nM ATF2-GFP substrate
T1 construct: recombinantly expressed as GST-tagged full-length protein purified from E. coli; GST; purchased Invitrogen PV3311; host or cells: E. coli
Outline: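 IC50 values were fitted from percent of DMSO control using a 520/495 nm TR-FRET ratio with terbium anti-pATF2 (pThr71), read after an EDTA stop. The kinase reaction lasted one hour at room temperature, following 15-min compound pre-treatment. It contained 5 μM ATP, 400 nM ATF2-GFP substrate and 20 ng/ml in vitro-activated GST-ERK2.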

Colo205 cell line = experiment: Colo205 cell proliferation assay (MTT assay, WST-8 readout); assay type: cell-based; settings: Homo sapiens; IC50 values of growth inhibition in Colo 205 cells; 72 hours
Outline: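 Growth-inhibition IC50 was derived from WST-8 absorbance at 450 nm (2 h development) after 72 h compound exposure at 37° C. Exposure used final 50 μM–0.005 μM compound in 0.5% DMSO. Colo205 cells had been plated at 5,000/well in RPMI-1640 plus 10% FBS and allowed 24 h to attach.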

T1 sequence (P28482 whole entry): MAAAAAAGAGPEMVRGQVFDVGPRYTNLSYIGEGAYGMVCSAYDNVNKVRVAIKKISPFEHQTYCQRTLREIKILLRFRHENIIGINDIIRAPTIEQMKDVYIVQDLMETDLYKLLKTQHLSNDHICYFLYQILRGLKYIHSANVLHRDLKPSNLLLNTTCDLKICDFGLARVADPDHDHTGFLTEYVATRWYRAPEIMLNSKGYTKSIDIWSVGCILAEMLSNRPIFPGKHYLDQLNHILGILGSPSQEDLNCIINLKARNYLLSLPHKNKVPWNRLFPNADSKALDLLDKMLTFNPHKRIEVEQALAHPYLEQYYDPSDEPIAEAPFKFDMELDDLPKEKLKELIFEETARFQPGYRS

| IC50 (human ERK2) [nM] | IC50 (Colo205 cell line) [nM] | SMILES |
| --- | --- | --- |
| < 10 | 1000 to 5000 | Cn1ccc(-c2n[nH]c3ccc(-c4ccn([C@H](CO)c5cc(F)cc(Br)c5)c(=O)c4)cc23)cc1=O [Example 121, (S)-1-(1-(3-bromo-5-fluorophenyl)-2-hydroxyethyl)-4-(3-(1-methyl-2-oxo-1,2-dihydropyridin-4-yl)-1H-indazol-5-yl)pyridin-2(1H)-one] |
| 10 to 50 | > 5000 | O=c1cc(-c2ccc3[nH]nc(-c4ccc(F)cn4)c3c2)ccn1Cc1ccnc(C(F)(F)F)c1 [Example 123, 4-(3-(5-fluoropyridin-2-yl)-1H-indazol-5-yl)-1-((2-(trifluoromethyl)pyridin-4-yl)methyl)pyridin-2(1H)-one] |
| < 10 | 500 to 1000 | Cc1cc(-c2n[nH]c3ccc(-c4cc(C)n(Cc5ccnc(C(F)(F)F)c5)c(=O)c4)cc23)ccn1 [Example 143, 6-methyl-4-(3-(2-methylpyridin-4-yl)-1H-indazol-5-yl)-1-((2-(trifluoromethyl)pyridin-4-yl)methyl)pyridin-2(1H)-one] |
| < 10 | 1000 to 5000 | Cc1cc(-c2n[nH]c3cnc(-c4ccn(Cc5ccnc(C(F)(F)F)c5)c(=O)c4)cc23)ccn1 [Example 144, 4-(3-(2-methylpyridin-4-yl)-1H-pyrazolo[3,4-c]pyridin-5-yl)-1-((2-(trifluoromethyl)pyridin-4-yl)methyl)pyridin-2(1H)-one] |
| < 10 | 500 to 1000 | O=c1cc(-c2ccc3[nH]nc(C4CCOCC4)c3c2)ccn1[C@H](CO)c1cc(F)cc(Br)c1 [Example 145, (S)-1-(1-(3-bromo-5-fluorophenyl)-2-hydroxyethyl)-4-(3-(tetrahydro-2H-pyran-4-yl)-1H-indazol-5-yl)pyridin-2(1H)-one] |
| < 10 | 1000 to 5000 | CC(c1cc(F)cc(Br)c1)n1ccc(-c2ccc3[nH]nc(C4CCOCC4)c3c2)cc1=O (centres unmarked) [Example 146, 1-(1-(3-bromo-5-fluorophenyl)ethyl)-4-(3-(tetrahydro-2H-pyran-4-yl)-1H-indazol-5-yl)pyridin-2(1H)-one] |

Second part, the molecule before the results:

| SMILES | IC50 (human ERK2) [nM] | IC50 (Colo205 cell line) [nM] |
| --- | --- | --- |
| COc1cc(-c2n[nH]c3ccc(-c4ccn([C@H](CO)c5cc(F)cc(Br)c5)c(=O)c4)cc23)ccn1 [Example 115, (S)-1-(1-(3-bromo-5-fluorophenyl)-2-hydroxyethyl)-4-(3-(2-methoxypyridin-4-yl)-1H-indazol-5-yl)pyridin-2(1H)-one] | < 10 | ≤ 500 |
| COc1ccc(-c2n[nH]c3ccc(-c4ccn(Cc5ccnc(C(F)(F)F)c5)c(=O)c4)cc23)cn1 [Example 116, 4-(3-(6-methoxypyridin-3-yl)-1H-indazol-5-yl)-1-((2-(trifluoromethyl)pyridin-4-yl)methyl)pyridin-2(1H)-one] | < 10 | 1000 to 5000 |
| O=c1cc(-c2ccc3[nH]nc(-c4ccc(F)cc4)c3c2)ccn1Cc1ccnc(C(F)(F)F)c1 [Example 117, 4-(3-(4-fluorophenyl)-1H-indazol-5-yl)-1-((2-(trifluoromethyl)pyridin-4-yl)methyl)pyridin-2(1H)-one] | < 10 | 1000 to 5000 |
| O=c1cc(-c2ccc3[nH]nc(-c4ccc(OC5CC5)nc4)c3c2)ccn1[C@H](CO)c1cc(F)cc(Br)c1 [Example 118, (S)-1-(1-(3-bromo-5-fluorophenyl)-2-hydroxyethyl)-4-(3-(6-cyclopropoxypyridin-3-yl)-1H-indazol-5-yl)pyridin-2(1H)-one] | < 10 | ≤ 500 |
| CCOc1cc(-c2n[nH]c3ccc(-c4ccn([C@H](CO)c5cc(F)cc(Br)c5)c(=O)c4)cc23)ccn1 [Example 119, (S)-1-(1-(3-bromo-5-fluorophenyl)-2-hydroxyethyl)-4-(3-(2-ethoxypyridin-4-yl)-1H-indazol-5-yl)pyridin-2(1H)-one] | < 10 | ≤ 500 |
| Cn1cc(-c2n[nH]c3ccc(-c4ccn([C@H](CO)c5cc(F)cc(Br)c5)c(=O)c4)cc23)ccc1=O [Example 120, (S)-1-(1-(3-bromo-5-fluorophenyl)-2-hydroxyethyl)-4-(3-(1-methyl-6-oxo-1,6-dihydropyridin-3-yl)-1H-indazol-5-yl)pyridin-2(1H)-one] | < 10 | 1000 to 5000 |
| COc1ccc(-c2n[nH]c3ccc(-c4ccn([C@H](CO)c5cc(F)cc(Br)c5)c(=O)c4)nc23)cn1 [Example 122, (S)-1-(1-(3-bromo-5-fluorophenyl)-2-hydroxyethyl)-4-(3-(6-methoxypyridin-3-yl)-1H-pyrazolo[4,3-b]pyridin-5-yl)pyridin-2(1H)-one] | < 10 | 1000 to 5000 |
| COc1ccc(-c2n[nH]c3cnc(-c4ccn([C@H](CO)c5cc(F)cc(Br)c5)c(=O)c4)cc23)cn1 [Example 124, (S)-1-(1-(3-bromo-5-fluorophenyl)-2-hydroxyethyl)-4-(3-(6-methoxypyridin-3-yl)-1H-pyrazolo[3,4-c]pyridin-5-yl)pyridin-2(1H)-one] | < 10 | 500 to 1000 |
| CC(c1cc(F)cc(Br)c1)n1ccc(-c2ccc3[nH]nc([C@H]4CC[C@H](O)CC4)c3c2)cc1=O (some centres unmarked) [Example 140, 1-(1-(3-bromo-5-fluorophenyl)ethyl)-4-(3-((1r,4r)-4-hydroxycyclohexyl)-1H-indazol-5-yl)pyridin-2(1H)-one] | < 10 | 1000 to 5000 |
| Cc1cc(-c2n[nH]c3ccc(-c4ccn(C(C)c5ccnc(C(F)(F)F)c5)c(=O)c4)cc23)ccn1 (centres unmarked) [Example 142, 4-(3-(2-methylpyridin-4-yl)-1H-indazol-5-yl)-1-(1-(2-(trifluoromethyl)pyridin-4-yl)ethyl)pyridin-2(1H)-one] | < 10 | ≤ 500 |
| O=c1cc(-c2ccc3[nH]nc(C4CCOCC4)c3c2)ccn1Cc1ccnc(C(F)(F)F)c1 [Example 147, 4-(3-(tetrahydro-2H-pyran-4-yl)-1H-indazol-5-yl)-1-((2-(trifluoromethyl)pyridin-4-yl)methyl)pyriidn-2(1H)-one] | < 10 | ≤ 500 |
| O=c1cc(-c2ccc3[nH]nc([C@H]4CC[C@H](O)CC4)c3c2)ccn1Cc1ccnc(C(F)(F)F)c1 [Example 148, 4-(3-((1r,4r)-4-hydroxycyclohexyl)-1H-indazol-5-yl)-1-((2-(trifluoromethyl)pyridin-4-yl)methyl)pyridin-2(1H)-one] | < 10 | 1000 to 5000 |
| O=c1cc(-c2ccc3[nH]nc([C@H]4CC[C@@H](O)CC4)c3c2)ccn1Cc1ccnc(C(F)(F)F)c1 [Example 149, 4-(3-((1s,4s)-4-hydroxycyclohexyl)-1H-indazol-5-yl)-1-((2-(trifluoromethyl)pyridin-4-yl)methyl)pyridin-2(1H)-one] | 10 to 50 | > 5000 |
